# Test results from patent US10137171B2, “Methods of treatment using a pentapeptide derived from the C-Terminus of Glucagon-Like Peptide 1 (GLP-1)” (The General Hospital Corporation, priority 2011, dated 2018).
# “Also recorded” adds a separate entry of the source. Where no end group is shown, it is not given here.
# Assays:
# Type in all cases: in vivo, mouse
# diet-induced obese mice [1] = test: Intraperitoneal glucose tolerance test (ipGTT); conditions: glucose 2 g/kg BW ip, overnight fasted, VHFD 24 weeks, 16 weeks infusion (FIG. 5C)
# Protocol: FIGS. 5C-D are a pair of line graphs Plasma glucose levels (FIG. 5C) and (FIG. 5D) Plasma insulin levels after an intraperitoneal glucose administration ([…] BW ip) in overnight fasted mice fed in VHFD for 24-weeks and 16-weeks of continuous infusions of vehicle or GLP-1(32-36)amide. ***p<4E-03 vehicle vs. GLP-1(32-36)amide, *p<0.01 vehicle vs. GLP-1(32-36)amide, **p<0.004 vehicle vs. GLP-1(32-36)amide, *****p<1.7E-05 vehicle vs. GLP-1(32-36)amide, ****p<6.7 E-04 vehicle vs. GLP-1(32-36)amide.
# Mice were maintained in a normal light/dark cycle according to the standard protocols of the MGH Animal Care and Use Committee. Mice were tested with age matched or litter mate controls and 6 mice per group are required. […] The following morning the mice were prepared for the glucose tolerance test: animals were weighed, the tail was nicked with a fresh razor blade by a horizontal cut of the very end, ˜35 to 50 microliters of blood is massaged from the tail to an eppendorf tube which is immediately placed on ice, baseline blood glucose is measured by the glucose oxidase method using a Glucometer Elite glucometer, and 2 grams/kg body weight of 20% D-glucose is drawn up in a Beckton Dickenson D 29 gage ½″ insulin syringe (one unit of D-glucose for every gram of body weight). Animals were then transferred to individually labeled 1000 cc cardboard soup cups with the lid liners removed.
# Following animal preparation, glucose was injected into the intraperitoneal cavity. At 10, 20, 30, 60, 120, and 140 minutes blood glucose is sampled from the tail of each mouse by gently massaging a small drop of blood onto the glucometer strip. Glucose injections and blood glucose sampling is timed to take approximately the same amount of time per animal (i.e. 25 animals are injected in 12 minutes and blood glucose sampling of those same 25 animals should also take about 12 minutes) so that the sample times are accurate for each animal.
# diet-induced obese mice [2] = test: Continuous osmopump infusion in very high-fat diet-induced obese mice: body weight, energy intake, Feed Efficiency
# Protocol: The data encompass twelve weeks, from week 2 to week 14 of continuous infusions of control vehicle and GLP-1(32-36)amide. GLP-1(32-36)amide was administered to mice via mini-osmopumps (Alzet #1004) at a rate of 40 nanomoles/Kg body weight/24 hours. Male C57bl/6j mice were placed on a high fat diet (Research Diets, #D12492, 60 kcal % fat) at six weeks of age and continued for 17 weeks before starting osmopump infusions at age 23 weeks. 1A. Line graph showing time-dependent changes in body weight (BW) over fourteen weeks of infusions of control vehicle and pentapeptide GLP-1(32-36)amide. (*) p<0.05 versus vehicle control; (**) p<0.04 versus vehicle control; (***) p<0.034; (#) p<0.01; (##) p<0.004; (###) p<0.0006, 0.0007; (####) p<0.0001. 1B. N=six mice per group. Values are means+/−SEMs. *p<0.013 peptide vs. vehicle. At week two of infusions of vehicle and pentapeptide the mice weighed 37.2 and 38.2 gms (averages of six mice), respectively. N=six mice per group.
# FIG. 3 is a bar graph showing feed efficiency at the end of 12 week infusion. GLP-1(32-36)amide infusions in diet-induced obese mice lowers the Feed Efficiency index. The data are the means+/−SEMs (*p<0.06 pentapeptide vs. vehicle) of the values calculated from the […] period of infusions of control vehicle and GLP-1(32-36)amide shown in FIG. 4. The Feed efficiency (FE) is a calculation of the body weight (gms) divided by the energy intake kcal) in the food consumed. […] Basal energy expenditure in mice treated with pentapeptide is increased compared to mice treated with control vehicle. N=6 mice per group.
# Male C57bl/6 mice at […] were placed on a very high-fat diet (VHFD, 60% fat, Research Diets) for 17 weeks. At week 17 the mice on the high-fat diet, corresponding to 23 weeks of age, mini-osmopumps containing either vehicle or GLP-1(32-36)amide were implanted subcutaneously for delivery of peptide or vehicle over 16 weeks. Forty nanomoles (20 micrograms) of GLP-1(32-36) was diluted in saline containing 0.1% human serum albumin and were infused at a rate of forty nanomoles/kgBW/day for 16 weeks to achieve an estimated concentration of approximately 100 pM similar to that reported by infusions of GLP-1(7-36)amide. For infusions longer than 4 weeks additional osmopumps with peptide were implanted at the end of each 4 weeks infusion. Body weights were recorded weekly. Food consumption was assessed every 3 to 4 days by weight. Energy intake (kcal/gm BW/week) and Feed Efficiency Index (FEI) were evaluated during the infusions of vehicle or peptide. The latter provides a measure of the efficiency of caloric conversion to body weight and it is calculated by determining the grams of body weight gain per cage/Kcal of food consumed per cage, [21]. There was no observable change in the activities of the mice amongst the various experimental groups. Mouse care was conducted under approval by the MGH Institutional Animal Care Use Committee.
# diet-induced obese mice [3] = test: Fasting plasma glucose and insulin measurements; conditions: 16 h fast, after 12 weeks infusion, 29 weeks on VHFD
# Excerpt: FIGS. 5A-B are a pair of bar graphs showing that GLP-1(32-36)amide attenuates the development of fasting hyperglycemia and hyperinsulinemia in high fat-fed mice. Mice fed the VHFD develop hyperglycemia, hyperinsulinemia, diabetes, and insulin resistance during weeks 15 to 29 of diet-induced obesity (21-35 weeks of age, respectively). A 12-week infusion of either control vehicle or pentapeptide started at 17 weeks on high-fat diet (23 weeks of age). FIG. 5A: Fasting plasma glucose levels *p<0.0004 vehicle vs. GLP-1(32-36)a. FIG. 5B: Fasting insulin levels *p<0.042 vehicle vs. GLP-1(32-36)a. The studies are in mice fed a VHFD for 15 weeks, two weeks before beginning the continuous infusions of either control vehicle or pentapeptide. Continuous infusions of vehicle or pentapeptide GLP-1(32-36)amide were give during weeks 17 to 29 of diet (23 to 35 weeks of age). Weeks denoted on the ordinate scales refers to weeks of age. N=6 mice per group. Values are means+/−SEMs.
# Plasma obtained by tail nick from mice fasted for 16 hrs was assayed for glucose by using the one touch ultra-mini glucometer (Life Scan, Johnson and Johnson company) and for insulin with a rat/mouse Elisa kit (Crystal Chem, Downers Grove, Ill.).
# Fasting immunoreactive insulin levels: whole blood samples were spun in a refrigerated microfuge at 14,000 rpm for 10 minutes and transferred to a clean tube. […]
substance,measurement,setting,value
"LVKGRamide (LVKGR-NH2) [GLP-1(32-36)amide, pentapeptide derived from the C-terminus of the glucoincretin hormone GLP-1]",glycemic response in ipGTT,diet-induced obese mice [1],normal
same,"average weekly change in body weight gain, less than control vehicle","diet-induced obese mice [2]; VHFD mice, 40 nanomoles/kg BW/day s.c. osmopump, measured over ten weeks (FIG. 1B)",50%
same,body weight at week two of infusions,"diet-induced obese mice [2]; VHFD mice, average of six mice, vehicle 37.2",38.2 gms
same,time at which inhibition of weight gain reached statistical significance,"diet-induced obese mice [2]; VHFD mice, continuous infusion 40 nanomoles/kg BW/day (FIG. 1A)",by week five; also recorded: as early as five weeks
same,energy intake (food intake),"diet-induced obese mice [2]; VHFD mice, ten weeks of infusion, vehicle 1.11±0.025",1.15±0.030 Kcal/g body weight/week
same,Feed Efficiency decrease compared to vehicle,diet-induced obese mice [2]; VHFD obese mice (FIG. 3),approximately 50%
same,Feed Efficiency index (effect in words),"diet-induced obese mice [2]; end of 12 week infusion, p<0.06 vs vehicle (FIG. 3)",lowers
same,body weights decreased compared to vehicle control,"diet-induced obese mice [2]; end of the sixteen week infusion, high fat diet-induced obese mice",50%
same,fasting plasma glucose,diet-induced obese mice [3]; vehicle 8.8 (FIG. 5A),5.5 mM
same,fasting plasma insulin,diet-induced obese mice [3]; vehicle 300 (FIG. 5B),250 pM
